Source: patent publication US20100297023A1, “Lipid” (priority 2006, published 2010)

Tests used:
mouse apoB gene = experiment: Down-regulation of the apoB gene in vivo (liver, real time PCR); design: species or system Balb/C mice; settings: tail vein, liver at 48 h
Procedure: Lipid-siRNA AB nanoparticles with CDAN and DODAG were prepared at final lipid:siRNA ratios of 2.5 and 3, respectively. These values correspond to the optimal ratios to completely retard the siRNA on a precast 0.8% agarose gel (Invitrogen). All lipid-siRNA AB nanoparticle complexes were made in water at a final concentration of 0.5 mg siRNA/mL in water.
Experimental The appropriate amounts of CDAN and DODAG from stock solutions in water (5 mg/mL and 2 mg/mL, respectively) were pipetted into a 25 mL falcon plastic tube. The appropriate amount of anti-apoB siRNA from a stock solution of 10 mg/mL was added slowly to the respective lipid solution while vortexing the falcon tube. The appropriate amount of a solution of trehalose (100%, w/v in water) was added and the sample vortexed heavily for 10 s. The samples were then sonicated in a water bath for 15 mins to generate homogenous emulsions. 15 mins prior to the injection of the samples into Balb/C mice, 1.5M NaCl was added so that each lipid-siRNA AB nanoparticle preparation contained a final concentration of 150 mM NaCl. 200 μL aliquots were injected via tail vein and the animals left for 48 h before sacrificing. The liver was extracted and immediately put into a solution of RNAlater (Ambion). The total RNA was extracted using RNAeasy columns (Qiagen), and quantified both by UV absorption (λ=260 nm) and by densiometry of the bands on a 2% agarose formaldehyde gel.
1 μg of the total RNA was reversed transcribed to generate cDNA in a total volume of 20 μL. After completion of the reaction, the total reaction volume was supplemented to 40 μL with water. From this solution, 1 μL was used to do real time PCR (Sybr green) using the forward primer 5′-[…] (SEQ ID NO: 26) and the reverse primer 5′-[…] (SEQ ID NO:27) on an Applied Biosystem 7700 machine. The data were analysed using the ABI prism software (FIG. 4).

siRNA = experiment: Agarose gel retardation assay of siRNA with lipid; type: physicochemical; settings: for optimal lipid:siRNA ratio to completely retard the siRNA: precast 0.8% agarose gel, anti-apoB siRNA
Procedure: Gel retardation assay. In order to define the optimal ratio between lipid:siRNA to achieve full complexation of the nucleic acid which is manifested by a complete retardation in an electrical field, different ratios of lipid:siRNA (0-3) were produced and aliquots run on precast 0.8% agarose gels (Invitrogen). For this purpose, 1 μg siRNA were pipetted into 0.5 mL eppendorf tubes complemented with distilled water to 10 μL. The appropriate amount of lipid from a stock in water (2 mg/mL) were added to generate lipid:siRNA ratios between 0 and 3. All samples were vortexed and the whole reaction mixture pipetted to the individual wells of 0.8% pre-cast agarose gels and run at 50V/10 mA for 20 mins (FIG. 2). […] Therefore, for all future in vivo experiments, a ratio of 3:1 (lipid:siRNA) was chosen.

CyPB mRNA in HeLa cells = experiment: Down-regulation of the cyclophilin B gene in vitro (real time PCR); type: cell-based, human; settings: lipid:siRNA ratios lower than 13:1 (w/w)
Procedure: Experimental 4 μg (3.74 μL) siRNA were complemented with 770 μL OptiMEM and 52 μg (26 μL) DODAG (2 mg/mL, water) added under vortexing. The DODAG-siRNA AB nanoparticles were allowed to stand for 5 mins at room temperature. 200 μL of the DODAG-siRNA AB nanoparticle solution were pipetted to two wells of a six well plate containing HeLa cells (250,000), and the cells incubated at 37° C. for 3 h under CO2 regime. The cells were then washed with warm PBS and incubated for another 48 h before lysing and extracting the total RNA using RNAeasy extraction columns (Qiagen). The same protocol was employed with CDAN. For DOGS, the protocol as recommended by the manufacturer was applied. The quality of the total RNA was verified on a 2% agarose formaldehyde gel, and the RNA quantified by UV (260 nm). 1 μg RNA of each sample was reverse transcribed to generate cDNA which was real time PCRed using standard protocols with Sybr green. The CyPB levels were standardized to β-actin levels for each sample (FIG. 3).

Row | SMILES | down-regulation of the apoB mRNA in vivo (mouse apoB gene; 5 mg siRNA/kg animal) | N/P ratio at which the movement of siRNA was entirely retarded (siRNA; agarose gel, assuming cationic charge of 1.5 per DODAG) | optimal lipid:siRNA ratio to completely retard the siRNA (siRNA) | specific down-regulation of CyPB in vitro (CyPB mRNA in HeLa cells) | down-regulation of the apoB mRNA in vivo (mouse apoB gene; 15 mg siRNA/kg animal)
1 | CCCCCCCCCCCCCCCCCCN(CCCCCCCCCCCCCCCCCC)C(=O)CNC(=O)CCNCCCNCCN [DODAG, N′,N′-dioctadecyl-N-4,8-diaza-10-aminodecanoylglycine amide] | > 60% | 1.8 | 3 | unsuccessful | –
2 | CC(C)CCC[C@@H](C)[C@H]1CC[C@H]2[C@@H]3CC=C4C[C@@H](OC(=O)NCCNCCCNCCN)CC[C@]4(C)[C@H]3CC[C@]12C [CDAN, N^1-cholesteryloxycarbonyl-3,7-diazanonane-1,9-diamine] | did not mediate down-regulation | – | 2.5 | – | did not mediate down-regulation
